Experimental data taken from patent US20260265771A1, “METHODS OF INCREASING THE REGENERATION EFFICIENCY IN PLANTS” (Institute of Genetics and Developmental Biology Chinese …, priority 2022, published 2026).
“Also recorded” adds a separate entry of the source.

Columns and labels:
[1] = system: young embryos of B104 and Chang 7-2; test: Shoot regeneration of maize young embryos; format: cell-based
Protocol: Young embryos of B104 and Chang 7-2 were treated with 0, 0.1 or 1 nM of ZmREF1. For both B-104 and Chan 7-2 shoot regeneration frequency was increased when ZmREF1 was applied, for B-104 this was greatest at 1 nM, however, for Chan 7-2 this was greatest at 0.1 nM, as shown in FIG. 52.

[2] = system: hypocotyl explants of cotton; test: Callus formation of cotton hypocotyl explants on CIM; format: cell-based
Protocol: (a) photos of cotton grown in the presence of 0.1 nM, 1 nM 10 nM, 100 nM 500 nM GaREF1 or absence of GaREF1 (mock), (b) Hypocotyl explants of cotton were cultured on callus-inducing medium (CIM) containing indicated concentrations of GaREF1, and callus phenotype was scored at 14 days after incubation. Box plots represent the distribution of projected callus area. The projected area of callus was quantified by Image J. Individual values (black dots) are shown and error bars represent SD from three independent experiments. ***P<0.001, **P<0.01, *P<0.05 (Student's t-test).
The cotton SIPEP (REF1) orthologue (GaREF1) was investigated to establish its effect on cotton regenerative capacity.

[3] = system: leaves of peach cultivar GF677; test: Callus formation of peach leaves on CIM; format: cell-based
Protocol: (a) photos of peach cultivar GF677 grown on a CIM in the presence of 100 nM PpREF1 and in the absence of PpREF1 (mock). (b) callus formation capacity of peach cultivar […] grown on a CIM in the presence 100 nM PpREF1 and in the absence of PpREF1 (mock) after 24 days. Callus formation capacity was represented by the percentage of leaves explants with regenerated embryonic calli. Data are mean±SD of three independent experiments.
Leaves of peach cultivar GF677 were cultured on CIM containing indicated concentrations of PpREF1, and callus phenotype was scored at 24 days after incubation on CIM. Callus formation capacity was represented by the percentage of leaves explants with regenerated embryonic calli. Data are mean±SD of three independent experiments. Callus formation capacity was increased by 10-fold in peach cultivar GF677 leaves grown in the presence of 100 nM PpREF1 compared to leaves grown in the absence of PpREF1.

[4] = system: pepper cotyledon explants; test: Callus formation of pepper cotyledon explants on CIM; format: cell-based, Capsicum annuum; details: CIM, 0, 1 and 10 nM CaREF1
Protocol: Cotyledon explants were cultured on callus-inducing medium (CIM) containing indicated concentrations of CaREF1. (a) photos of cotelydon explants grown with 0 nM, 1 nM and 10 nM CaREF1. (b) relative callus area of cotelydon explants grown with 0 nM, 1 nM and 10 nM CaREF1. Box plots represent the distribution of projected callus area. The projected area of callus was quantified by Image J. Individual values (black dots) are shown and error bars represent SD from three independent experiments. **P<0.01, *P<0.05 (Student's t-test).

pepper roots = test: Root hair formation in pepper; format: in vivo, Capsicum annuum; details: 0, 10 and 100 nM CaREF1
From the text: The pepper SIPEP (REF1) orthologue (CaREF1) was investigated to establish whether CaREF1 can increase the regenerative capacity of pepper (Capsicum annuum).

[5] = system: ZH11, Nipponbare and 9311 rice; test: Shoot regeneration of rice on SIM; format: cell-based, Oryza sativa; details: for shoot regeneration: SIM, 10 nM; for shoot regeneration capacity, increase: 10 nM OsREF1 vs absence
Protocol: ZH11 was cultured on SIM containing indicated concentrations of OsREF1. (a) photos of ZH11 grown in presence of 0 nM and 10 nM OsREF1. (b) shoot regeneration capacity of ZH11 grown in with either 0 nM or 10 nM OsREF1.
Nipponbare was cultured on SIM containing indicated concentrations of OsREF1. (a) photos of nipponbare grown in presence of 0 nM and 10 nM OsREF1. (b) shoot regeneration capacity of nipponbare grown in with either 0 nM or 10 nM OsREF1.
9311 rice was cultured on SIM containing indicated concentrations of OsREF1. (a) photos of 9311 rice grown in presence of 0 nM and 10 nM OsREF1. (b) shoot regeneration capacity of 9311 rice grown in with either 0 nM or 10 nM OsREF1.
Shoot regeneration was investigated in ZH11 and Nipponbare Japonica rice as well as 9311 indica rice. OsREF1 promoted shoot generation in all three of these rice varieties.

[6] = system: wild allotetraploid rice (L-04); test: Shoot regeneration of wild allotetraploid rice; format: cell-based
Protocol: (a) images of L-04 rice grown in the presence of 10 nM OsREF1 or absence of OsREF1 (mock). (b) regeneration frequency of L-04 rice grown in the presence of 10 nM OsREF1 or absence of OsREF1.

[7] = system: seeds of wild allotetraploid rice L-04; test: Callus formation of wild allotetraploid rice seeds on CIM; format: cell-based; details: for callus formation capacity, increase: vs absence
Protocol: L-04 rice was grown in the presence of 10 nM or 1 nM OsREF1 or in the absence of OsREF1 (mock). (a) photos of L-04 rice grown in presence the of 10 nM, 1 nM OsREF1 or absence of OsREF1 (mock). (b) callus formation capacity of L-04 rice grown in the presence of 10 nM, 1 nM OsREF1 or absence of OsREF1 (mock).
Seeds of wild allotetraploid rice L-04 were cultured on CIM containing indicated concentrations of OsREF1 (1 nM and 10 nM) for 20 days.

[8] = system: wild allotetraploid rice (L-04); test: Growth (primary root length) of wild allotetraploid rice; format: in vivo; details: L-04, 10 nM OsREF1 vs mock
Protocol: L-04 rice was grown in the presence of 10 nM OsREF1 or in the absence of OsREF1 (mock). (a) photos of L-04 rice grown in presence the of 10 nM OsREF1 or absence of OsREF1 (mock). (b) primary root length of L-04 rice grown in the presence of 10 nM OsREF1 or absence of OsREF1 (mock).

mature seeds of ZH11 = test: Callus formation of rice mature seeds on CIM; format: cell-based, Oryza sativa; details: for callus formation capacity, increase: 20 days
Protocol: Mature seeds of ZH11 were cultured on CIM containing indicated concentrations of OsREF1. (a) photos of ZH11 grown in presence of 1 nM and 10 nM OsREF1 or in the absence of OsREF1 (mock). (b) callus phenotype was scored 20 days after incubation on CIM. Callus formation capacity was represented by the percentage of mature seed explants with regenerated embryonic calli. Data are mean±SD of three independent experiments.
Mature seeds of ZH11 were cultured on CIM containing indicated concentrations of OsREF1 (1 nM and 10 nM). As shown in FIG. 27A calluses formed that were larger in the presence of OsREF1 than in the absence of OsREF1.

sunflower explants = test: Shoot regeneration of sunflower cotyledon explants; format: cell-based
Protocol: (A) The shoot regenerative capacity was represented by the relative frequency of explants with the regenerated shoots. (B) The shoot regenerative capacity was represented by the number of explants with different number of regenerated shoots. Bars show mean±SD. ***P<0.001, **P<0.01, *P<0.05 (Student's t-test). (C) photos of sunflower plants grown in the presence of 1 nM HaREF1, 10 nM HaREF1 or absence of HaREF1 (mock).
The sunflower SIPEP (REF1) orthologue (HanREF1) was investigated to establish its effect on sunflower regenerative capacity.
For the regeneration protocol we referred to Radonic et al., 2015. The explant used in the sunflower regeneration assay was cotyledon.
Shoot regeneration frequency was established by calculating the average number of shoots, in the context of the present invention shoot regenerative capacity refers to the number of shoots per explant in each treatment.

[9] = system: Chinese Spring and JM22 wheat; test: Callus formation of wheat immature embryos on CIM; format: cell-based; details: exogenous TaREF1
Protocol: (a) photos of Chinese Spring wheat grown in the presence or 0 nM, 0.01 nM or 0.1 nM TaREF1. (b) immature embryos of Chinese Spring were cultured on CIM containing indicated concentrations of TaREF1, and callus phenotype was scored at 14 days after incubation on CIM. Callus formation capacity was represented by the percentage of immature embryo explants with regenerated embryonic calli. Data are mean±SD of three independent experiments.
(§1) TaREF1 was also shown to increase the callus formation capacity of Chinese spring wheat when applied exogenously (FIG. 43) and JM22 wheat (FIG. 54).

[10] = system: Chinese Spring, Kn199 and JM22 wheat; test: Shoot regeneration of wheat; format: cell-based
Protocol: (a) photos of Kn199 wheat grown in the presence of 0.01 nM or 1 nM TaREF1 or absence of TaREF1 (mock). (b) photos of Kn199 wheat grown in the presence of 0.01 nM or 1 nM TaREF1 or absence of TaREF1.
as §1
Shoot regeneration frequency was established by calculating the average number of shoots, in the context of the present invention shoot regenerative capacity refers to the number of shoots per explant in each condition.

wheat = test: Root and shoot growth of wheat; format: in vivo; details: 100 nM TaREF1 vs absence
From the text: (a) photos of wheat grown in the presence of 100 nm TaREF1, or in the absence of TaREF1 (mock). (b) primary root length in wheat grown in the presence of 100 nm TaREF1, or in the absence of TaREF1 (mock). (c) shoot length of wheat grown in the presence of 100 nm TaREF1, or in the absence of TaREF1 (mock).
The wheat SIPEP (REF1) orthologue (TaREF1) was investigated to establish whether REF1 can increase the regenerative capacity in wheat.

Sequence: RRPRPRPPDHAREGSGGNGGVHH (Zea mays) [ZmREF1]
- concentration with greatest shoot regeneration frequency ([1]; B-104): 1 nM
- shoot regeneration frequency ([1]; B-104 and Chan 7-2, 0.1 or 1 nM ZmREF1 vs 0): increased; also recorded: promotes shoot regeneration
- concentration with greatest shoot regeneration frequency ([1]; Chan 7-2): 0.1 nM

Sequence: LPMVSLFTPKRPGTSAGSGPQIN (listed as Gossypium arboreum) [GaREF1]
- relative callus area, concentration dependence ([2]; 0.1-500 nM GaREF1): increasing as concentration of GaREF1 is increased
- relative callus area / callus formation ([2]; presence vs absence of GaREF1, 14 days): increased; also recorded: promotes callus formation

Sequence: KRPRITLRAARPEISTGSGAQTN (listed as Prunus persica) [PpREF1]
- callus formation ([3]; GF677, 100 nM PpREF1 vs mock): promotes callus formation
- callus formation capacity, increase ([3]; GF677 leaves, 100 nM PpREF1 vs absence, 24 days): 10 fold

Sequence: TGRRRGRPPSRPGVGRGPPPENN (listed as Capsicum annuum) [CaREF1]
- callus formation [4]: increased; also recorded: promotes callus formation
- root hair formation (pepper roots): promotes root hair formation

Sequence: DDSKPTGPGAPAEGSGGDGGAIH (listed as Oryza sativa) [OsREF1]
- shoot regeneration ([5]; 9311 indica rice): promotes shoot regeneration
- shoot regeneration capacity, increase ([5]; 9311 rice): ~ 3.5 fold
- shoot regeneration ([5]; Nipponbare Japonica rice): promotes shoot regeneration
- shoot regeneration capacity, increase ([5]; Nipponbare rice): ~ 4 fold
- shoot regeneration ([5]; ZH11 Japonica rice): promotes shoot regeneration
- shoot regeneration capacity, increase ([5]; ZH11 rice): ~ 4 fold
- shoot regeneration frequency, increase ([6]; L-04, 10 nM OsREF1 vs absence): ~ 12.2 fold
- shoot regeneration ([6]; L-04, 10 nM OsREF1 vs mock): promotes shoot regeneration
- callus formation capacity, increase ([7]; L-04, 1 nM OsREF1, 20 days): ~ 7.4 fold
- callus formation capacity, increase ([7]; L-04, 10 nM OsREF1, 20 days): ~ 8.9 fold
- callus formation ([7]; L-04, 1 or 10 nM OsREF1 vs mock): promotes callus formation
- growth [8]: promotes the growth
- primary root length [8]: significantly increased
- callus formation capacity, increase (mature seeds of ZH11; ZH11, 1 nM OsREF1 vs absence): ~ 2 fold
- callus formation capacity, increase (mature seeds of ZH11; ZH11, 10 nM OsREF1 vs absence): ~ 3 fold
- callus formation (mature seeds of ZH11; ZH11 Japonica rice, presence vs absence of OsREF1): larger; also recorded: promotes callus formation

Sequence: RRLTRRPPPPRGPISSGGGGQTN (listed as Helianthus annuus) [HanREF1]
- shoot regeneration, increase (sunflower explants; 1 nM HanREF1 vs absence): ~ 2.1 fold
- shoot regeneration, increase (sunflower explants; 10 nM HanREF1 vs absence): ~ 4.5 fold
- shoot regeneration (sunflower explants; 1 or 10 nM vs mock): promotes shoot regeneration

Sequence: AVRRPRPPGNPREGRGGGGGSHN (listed as Triticum aestivum) [TaREF1]
- callus formation capacity ([9]; Chinese spring wheat): increase
- callus formation capacity ([9]; JM22 wheat): increase; also recorded: promotes callus formation
- shoot regeneration ([10]; Chinese Spring wheat): promotes shoot regeneration
- shoot regeneration ([10]; JM22 wheat): promotes shoot regeneration
- shoot regeneration ([10]; Kn199 wheat): promotes shoot regeneration
- root length (wheat): increased; also recorded: promotes root and shoot growth
- shoot length (wheat): increased; also recorded: promotes root and shoot growth
